Assay results: US20100105610A1, “Methods of Inhibiting Tumor Cell Aggressiveness Using the Microenvironment of Human Embryonic Stem Cells” (CHILDREN'S MEMORIAL HOSPITAL, priority 2006, published 2010)

How the values were obtained:
[1] = test system: MDA-MB-231 cells; assay: In vitro proliferation assay (cell count), MDA-MB-231; format: cell-based, human; settings: MDA-MB-231, relative to MO Control; 4 days after plating 15,000 cells
[2] = test system: C8161 human cutaneous melanoma cells; assay: In vivo tumor formation, C8161 cells injected subcutaneously into nude mice; design: species or system mouse; settings: 250,000 Morpholino-treated C8161 cells injected, vs control
Experimental: A microenvironment of human embryonic stem cells (H9 CMTX) was prepared as described above. C8161 human cutaneous melanoma cells were exposed to the H9 CMTX or Matrigel for 3 to 4 days prior to transplantation in a mouse model. Nude immunocompromised mice received an injection of the C8161 cells subcutaneously into the midscapular region (to mimic spontaneous metastatic dissemination found in human cancers). The animals were injected using a 25 or 27-gauge needle with 2.5×10^5 tumor cells/mouse in 0.05 ml RPMI media.
As a corollary to these findings, an orthotopic mouse model was used to examine the effect of Nodal inhibition on melanoma tumor formation. For the experimental tumourigenesis model, 5 week old nude mice (Harlan, Madison, Wis.) were injected subcutaneously with 250,000 C8161 cells, treated with control or anti-Nodal Morpholinos, in 50 μL of complete RPMI. Tumor measurements were taken on days 3, 7, 14 and 17 post-injection, and mice were sacrificed on day 17. For the orthotopic mouse tumor formation studies, statistical significance was determined using the Kruskal-Wallis One Way Analysis of Variance on Ranks, followed by Dunn's method. […]

[3] = test system: C8161 melanoma cells; assay: In vivo tumor cell proliferation-to-apoptosis ratio (Ki67 / TUNEL), C8161 tumors; settings: C8161 cells treated prior to injection into mouse
Text: (A) In vivo tumor formation in a mouse injected with MDA-MB-231 cells pre-exposed for 3 days to either a control matrix (Matrigel) or a matrix conditioned by hESCs (H9 CMTX) (n=10) (B) C81-61 cells, transfected with either an empty vector or a Nodal expression construct (n=5), and (C) MDA-MB-231 cells treated with either MO^Control or MO^Nodal (n=10). […] (D) The ratio of tumor cell proliferation to apoptosis for C8161 and MDA-MB-231 derived tumors, determined by immunohistochemical staining for Ki67 and terminal deoxynucleotidyl transferase biotin-dUTP nick-end labeling (TUNEL). Prior to injection into a mouse, C8161 and MDA-MB-231 cells were cultured for 3 days on control or hESC conditioned (H9 CMTX) matrices, or treated with MO^Nodal to knock down Nodal expression. […] (E) Immunohistochemical analysis of Ki67 expression (red/brown) and TUNEL staining in orthotopic melanoma (C8161) and breast carcinoma (MDA-MB-231) tumors. […] Proliferation is indicated by Ki67 staining and apoptotic nuclei were detected with confocal microscopy as red staining localized to the nuclei of apoptotic C8161 or MDA-MB-231 cells. […]
In order to establish a mechanism by which exposure to the hESC microenvironment abrogates tumorigenicity, the effects of this treatment on the in vivo tumor cell proliferation-to-apoptosis ratio were analyzed. […]

[4] = test system: C8161 cells; assay: Anchorage independent growth / soft agar colony formation, C8161; format: cell-based, human; settings: C8161 cells, soft agar, after 2 weeks
Experimental: An in vitro colony forming assay was used to analyze colony-forming ability of poorly aggressive C81-61 cells, aggressive C8161 cells, C8161 cells treated with MONodal and C8161 cells treated with MONodal and rescued with recombinant Nodal (100 ng/mL). The assay was conducted using 50,000 cells suspended in 0.35% agarose in RPMI containing 10% serum, which were plated into 6-well dishes on 0.5% agar in the same medium. Colonies grew, and pictures were taken at day 7. After 2 weeks, colonies were stained with Crystal Violet and counted.
Clonogenicity of cells are assessed as previously described. Hamburger, A. W., and Salmon, S. E., 1977, Science 197:461-463. Each parameter is tested in triplicate for clone formation in soft agar. Briefly, […] are plated in 60 mm Petri dishes in complete medium placed over the soft agar. On specific days after the cells are plated, phase contrast images of the colonies are taken using a Zeiss Axiovert 25 with an Hitachi HCV-20 color camera.
Anchorage independent growth assays were conducted as previously described. Topczewska et al., 2006, Nat. Med. 12: 925-932.

[5] = test system: C8161 cells; assay: In vitro proliferation assay (cell count), C8161; format: cell-based, human; settings: C8161, relative to MO Control; 4 days after plating 15,000 cells

Substance: MO^Nodal: antisense Morpholino to Nodal, 5′-AAGCAGCACCTCCAGCCCTTATATC-3′ (SEQ ID NO: 20) (all phosphorodiamidate morpholino (PMO); further chemistry not fully specified)
- in vitro cell proliferation [1]: reduced proliferation
- diminution of tumor incidence [2]: 30%
- tumorigenicity [2]: significant reduction
- ratio of proliferation to apoptosis [3]: decreased
- reduction of colony formation [4]: 57%
- in vitro cell proliferation [5]: reduced proliferation
